Counter-ions that a name gives are not always drawn. Like-named read-outs stand apart in the source and are kept apart here.
Target: T1, recombinant full-length USP7 (Homo sapiens, UniProt Q93009)
T1 construct: A 25 μl reaction volume containing recombinant full-length USP7 (62 pM)
Assay: USP7-mediated ubiquitin-rhodamine cleavage assay
Assay type: biochemical
Settings: recombinant full-length USP7 62 pM, ubiquitin-rhodamine 100 nM, 1 hour reaction at room temperature
Experimental: In the case of the USP7 deubiquitylating enzyme, the IC50 of an USP7 inhibiting compound is the concentration of the compound that inhibits 50% of the activity observed in a USP7-mediated ubiquitin-rhodamine cleavage assay.
For the USP7 inhibitors disclosed herein, their potency was measured using the following test method.
A 25 μl reaction volume containing recombinant full-length USP7 (62 pM) in 20 mM HEPES pH 7.3, 150 mM NaCl, 1 mM TCEP, and 125 μg/ml BSA was assembled in wells of 384 well plates. Test compounds were dispensed with a Hewlett Packard D300 digital dispenser (1% final DMSO). Following a 30-minute incubation at room temperature, ubiquitin-rhodamine was added with the D300 to a final concentration of 100 nM and the reaction was allowed to proceed for 1 hour at room temperature protected from light. The reaction was stopped by the addition of 5 μl 1M acetic acid. Rhodamine fluorescence was measured using an Envision plate reader (Perkin Elmer) and IC50 values were determined by non-linear regression using a 4-parameter fit in a Dotmatics (Bishops Stortford, Hertfordshire, England) software package.

[1] = 30-minute incubation with compound, read-out: Potency: USP7 IC50
[2] = 30-minute pre-incubation, read-out: Potency (USP7 IC50)

T1 sequence (Q93009 whole entry): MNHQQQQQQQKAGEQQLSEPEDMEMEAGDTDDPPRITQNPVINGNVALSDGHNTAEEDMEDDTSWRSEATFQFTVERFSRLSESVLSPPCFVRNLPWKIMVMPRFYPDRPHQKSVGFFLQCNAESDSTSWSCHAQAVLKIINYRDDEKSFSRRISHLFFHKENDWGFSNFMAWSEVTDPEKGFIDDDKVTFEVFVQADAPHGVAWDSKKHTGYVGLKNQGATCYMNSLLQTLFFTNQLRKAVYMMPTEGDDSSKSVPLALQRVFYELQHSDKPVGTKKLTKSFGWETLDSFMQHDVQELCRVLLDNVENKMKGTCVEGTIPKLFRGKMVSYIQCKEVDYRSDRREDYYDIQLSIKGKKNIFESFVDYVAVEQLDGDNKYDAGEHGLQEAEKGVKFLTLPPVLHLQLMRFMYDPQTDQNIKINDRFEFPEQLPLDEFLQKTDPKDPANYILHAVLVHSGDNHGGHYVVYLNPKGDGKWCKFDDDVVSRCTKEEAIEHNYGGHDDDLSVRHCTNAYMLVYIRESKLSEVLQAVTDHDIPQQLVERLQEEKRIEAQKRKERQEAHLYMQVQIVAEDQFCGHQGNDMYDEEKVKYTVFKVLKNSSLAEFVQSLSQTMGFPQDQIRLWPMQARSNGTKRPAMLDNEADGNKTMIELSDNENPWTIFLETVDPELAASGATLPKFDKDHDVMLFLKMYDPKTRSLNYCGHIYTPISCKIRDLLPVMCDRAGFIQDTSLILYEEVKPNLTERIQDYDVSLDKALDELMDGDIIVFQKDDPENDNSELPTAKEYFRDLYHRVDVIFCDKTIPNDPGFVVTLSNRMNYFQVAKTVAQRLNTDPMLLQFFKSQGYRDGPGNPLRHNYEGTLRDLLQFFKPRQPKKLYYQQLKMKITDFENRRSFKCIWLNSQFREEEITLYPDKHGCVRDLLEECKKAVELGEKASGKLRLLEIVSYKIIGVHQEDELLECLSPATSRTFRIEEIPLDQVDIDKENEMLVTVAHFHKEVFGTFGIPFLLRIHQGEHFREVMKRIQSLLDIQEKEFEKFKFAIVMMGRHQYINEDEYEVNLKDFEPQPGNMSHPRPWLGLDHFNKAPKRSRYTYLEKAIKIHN

Cc1cc(Cl)cc(-c2ccnc3cc(CO)sc23)c1OC1CCC12CNC2 (stereo not drawn) [Example 49, (7-(2-((2-Azaspiro[3.3]heptan-5-yl)oxy)-5-chloro-3-methylphenyl)thieno[3,2-b]pyridin-2-yl)methanol]
IC50 [1]: 1000 to 10000 nM

CO[C@@H]1CC(=O)N(Cc2cc3nccc(-c4cc(Cl)cc(C)c4O[C@H]4CCCNC4)c3s2)C1=O [Example 481, (3R)-1-[[7-[5-chloro-3-methyl-2-[[(3S)-3-piperidyl]oxy]phenyl]thieno[3,2-b]pyridin-2-yl]methyl]-3-methoxy-pyrrolidine-2,5-dione; 2,2,2-trifluoroacetic acid]
IC50 [2]: < 1000 nM

Cc1cc(C#N)cc(-c2ccnc3cc(CN4C(=O)CCS4(=O)=O)sc23)c1O[C@@H]1CNC[C@@H]1F [Example 114, 3-(2-((1,1-Dioxido-3-oxoisothiazolidin-2-yl)methyl)thieno[3,2-b]pyridin-7-yl)-4-(((3R,4S)-4-fluoropyrrolidin-3-yl)oxy)-5-methylbenzonitrile]
IC50 [1]: < 1000 nM

Cc1cc(Cl)cc(-c2ncnc3cc(CN4C(=O)C5C(C4=O)C5(C)C)sc23)c1OCC1(C)CNC1 (stereo not drawn) [Example 395, 3-[[4-[5-chloro-3-methyl-2-[(3-methylazetidin-3-yl)methoxy]phenyl]thieno[3,2-d]pyrimidin-6-yl]methyl]-6,6-dimethyl-3-azabicyclo[3.1.0]hexane-2,4-dione]
IC50 [1]: < 1000 nM

Cc1cc(Cl)cc(-c2ccnc3ccsc23)c1OC1CC2CNC1C2 (stereo not drawn) [Example 171, 7-(2-((2-Azabicyclo[2.2.1]heptan-6-yl)oxy)-5-chloro-3-methylphenyl)thieno[3,2-b]pyridine]
IC50 [1]: 10000 to 30000 nM

Cc1cc(Cl)cc(-c2ccnc3cc(CN4C(=O)CCC4=O)sc23)c1OC1CCCC(N)C1 (stereo not drawn) [Example 427, 1-[[7-[2-(3-aminocyclohexoxy)-5-chloro-3-methyl-phenyl]thieno[3,2-b]pyridin-2-yl]methyl]pyrrolidine-2,5-dione; 2,2,2-trifluoroacetic acid]
IC50 [2]: < 1000 nM

Cc1cc(Cl)cc(-c2ccnc3cc(Cn4c(=O)ccn(C)c4=O)sc23)c1O[C@H]1CN[C@H](C(=O)O)C1 [Example 600, (2S,4R)-4-[4-chloro-2-methyl-6-[2-[(3-methyl-2,6-dioxo-pyrimidin-1-yl)methyl]thieno[3,2-b]pyridin-7-yl]phenoxy]pyrrolidine-2-carboxylic acid]
IC50 [2]: 1000 to 10000 nM

Cc1cc(Cl)cc(-c2ccnc3cc(CN4C(=O)C5C(C4=O)C5(C)C)sc23)c1O[C@H]1CCCN[C@H]1C (stereo partly drawn) [Example 363, 3-[[7-[5-chloro-3-methyl-2-[[(2S,3S)-2-methyl-3-piperidyl]oxy]phenyl]thieno[3,2-b]pyridin-2-yl]methyl]-6,6-dimethyl-3-azabicyclo[3.1.0]hexane-2,4-dione; 2,2,2-trifluoroacetic acid]
IC50 [1]: < 1000 nM

Cc1cc(Cl)cc(-c2ccnc3cc(Cn4c(=O)ccn(C)c4=O)sc23)c1O[C@@H]1CNC[C@@H]1C(F)(F)F [Example 441, 3-[[7-[5-chloro-3-methyl-2-[(3S,4S)-4-(trilfuoromethyl)pyrrolidin-3-yl]oxy-phenyl]thieno[3,2-b]pyridin-2-yl]methyl]-1-methyl-pyrimidine-2,4-dione]
IC50 [2]: < 1000 nM

N#Cc1cc(Cl)cc(-c2ccnc3cc(CN4C(=O)CCC4=O)sc23)c1O[C@@H]1CNC[C@@H]1F [Example 121, 5-Chloro-3-(2-((2,5-dioxopyrrolidin-1-yl)methyl)thieno[3,2-b]pyridin-7-yl)-2-(((3R,4S)-4-fluoropyrrolidin-3-yl)oxy)benzonitrile]
IC50 [1]: < 1000 nM

Cc1cc([N+](=O)[O-])cc(-c2ccnc3cc(Cn4c(=O)ccn(CC(F)(F)F)c4=O)sc23)c1Oc1cn[nH]c1 [Example 614]
IC50 [2]: < 1000 nM

Cc1cc(Cl)cc(-c2ccnc3cc(CN4C(=O)C5C(C4=O)C5(C)C)sc23)c1O[C@@H]1CCNC[C@@H]1F (stereo partly drawn) [Example 376, 3-[[7-[5-chloro-2-[[(3S,4R)-3-fluoro-4-piperidyl]oxy]-3-methyl-phenyl]thieno[3,2-b]pyridin-2-yl]methyl]-6,6-dimethyl-3-azabicyclo[3.1.0]hexane-2,4-dione; 2,2,2-trifluoroacetic acid]
IC50 [1]: < 1000 nM

Cc1cc(Cl)cc(-c2ncnc3cc(Cn4c(=O)c(F)cn(C(C)C)c4=O)sc23)c1O[C@H]1CCCNC1 [Example 548, 3-[[4-[5-chloro-3-methyl-2-[[(3S)-3-piperidyl]oxy]phenyl]thieno[3,2-d]pyrimidin-6-yl]metthyl]-5-fluoro-1-isopropyl-pyrimidine-2,4-dione]
IC50 [2]: < 1000 nM

Cc1cc(Cl)cc(-c2ccnc3cc(CN4C(=O)CCN(C)C4=O)sc23)c1O[C@H]1CCCNC1 [Example 162, (S)-3-((7-(5-Chloro-3-methyl-2-(piperidin-3-yloxy)phenyl)thieno[3,2-b]pyridin-2-yl)methyl)-1-methyldihydropyrimidine-2,4(1H,3H)-dione]
IC50 [1]: < 1000 nM

Cc1cc(Cl)cc(-c2ccnc3cc(Cn4c(=O)ccn(C)c4=O)sc23)c1OC1CN2CCC1C2 [Example 530, 3-[[7-[2-[[(1R,3S,4S)-1-azabicyclo[2.2.1]heptan-3-yl]oxy]-5-chloro-3-methyl-phenyl]thieno[3,2-b]pyridin-2-yl]methyl]-1-methyl-pyrimidine-2,4-dione]
IC50 [2]: < 1000 nM

Cc1cc(Cl)cc(-c2ccnc3cc(CN4C(=O)CCC4=O)sc23)c1O[C@@H]1CN[C@@H](C(F)F)C1 [Example 125, 1-((7-(5-Chloro-2-(((3S,5R)-5-(difluoromethyl)pyrrolidin-3-yl)oxy)-3-methylphenyl)thieno[3,2-b]pyridin-2-yl)methyl)pyrrolidine-2,5-dione]
IC50 [1]: 1000 to 10000 nM

Cc1cc(Cl)cc(-c2ccnc3cc(Cn4c(=O)ccn(C)c4=O)sc23)c1OC1CC2CC1N(CCO)C2 (stereo not drawn) [Example 461, 3-[[7-[5-chloro-2-[[3-(2-hydroxyethyl)-3-azabicyclo[2.2.1]heptan-5-yl]oxy]-3-methyl-phenyl]thieno[3,2-b]pyridin-2-yl]methyl]-1-methyl-pyrimidine-2,4-dione]
IC50 [2]: < 1000 nM

Cc1c(F)c(Cl)cc(-c2ccnc3cc(Cn4c(=O)ccn(C)c4=O)sc23)c1O[C@H]1CCCNC1 [Example 435, 3-[[7-[5-chloro-4-fluoro-3-methyl-2-[[(3S)-3-piperidyl]oxy]phenyl]thieno[3,2-b]pyridin-2-yl]methyl]-1-methyl-pyrimidine-2,4-dione dihydrochloride]
IC50 [2]: 1000 to 10000 nM

Cc1cc(Cl)cc(-c2ccnc3cc(Cn4c(=O)ccn(C(C)C(F)(F)F)c4=O)sc23)c1O[C@H]1CCCNC1 (stereo partly drawn) [Example 575, 3-[[7-[5-chloro-3-methyl-2-[[(3S)-3-piperidyl]oxy]phenyl]thieno[3,2-b]pyridin-2-yl]methyl]-1-(2,2,2-trifluooro-1-methyl-ethyl)pyrimidine-2,4-dione]
IC50 [2]: < 1000 nM

Cc1cc(Cl)cc(-c2ccnc3cc(CN4C(=O)CCC4=O)sc23)c1OC1CCCNC1C (stereo not drawn) [Example 419, 1-[[7-[5-chloro-3-methyl-2-[(2-methyl-3-piperidyl)oxy]phenyl]thieno[3,2-b]pyridin-2-yl]methyl]pyrrolidine-2,5-dione]
IC50 [2]: < 1000 nM

OCc1cc2nccc(-c3cc(Cl)cc(Br)c3OCC3CNC3)c2s1 [Example 21, (7-(2-(Azetidin-3-ylmethoxy)-3-bromo-5-chlorophenyl)thieno[3,2-b]pyridin-2-yl)methanol]
IC50 [1]: 1000 to 10000 nM

OCc1cc2nccc(-c3cc(Cl)cc(C4CC4)c3OCC3CNC3)c2s1 [Example 23, (7-(2-(Azetidin-3-ylmethoxy)-5-chloro-3-cyclopropylphenyl)thieno[3,2-b]pyridin-2-yl)methanol]
IC50 [1]: 1000 to 10000 nM

Cc1cc(Cl)cc(-c2ccnc3cc(Cn4c(=O)ccn(CC(F)(F)F)c4=O)sc23)c1OC1(C)CCNC1 (stereo not drawn) [Example 663, 3-[[7-[5-chloro-3-methyl-2-(3-methylpyrrolidin-3-yl)oxy-phenyl]thieno[3,2-b]pyridin-2-yl]methyl]-1-(2,2,2-trifluoroethyl)pyrimidine-2,4-dione]
IC50 [2]: < 1000 nM

Cc1cc(Cl)cc(-c2ccnc3cc(CN4C(=O)CCC4=O)sc23)c1O[C@@H]1CNCC[C@H]1C [Example 415, 1-[[7-[5-chloro-3-methyl-2-[[(3S,4R)-4-methyl-3-piperidyl]oxy]phenyl]thieno[3,2-b]pyridin-2-yl]methyl]pyrrolidine-2,5-dione]
IC50 [2]: < 1000 nM

Cc1cc(Cl)cc(-c2ccnc3cc(Cn4c(=O)ccn(CC(F)(F)F)c4=O)sc23)c1O[C@H]1CNCC[C@H]1C [Example 280, 3-((7-(5-Chloro-3-methyl-2-(((3R,4R)-4-methylpiperidin-3-yl)oxy)phenyl)thieno[3,2-b]pyridin-2-yl)methyl)-1-(2,2,2-trifluoroethyl)pyrimidine-2,4(1H,3H)-dione]
IC50 [1]: < 1000 nM

Cc1cc(Cl)cc(-c2ccnc3cc(Cn4c(=O)ccn(C)c4=O)sc23)c1O[C@H]1CCN(C)C[C@@H]1F [Example 472, 3-[[7-[5-chloro-2-[[(3S,4S)-3-fluoro-1-methyl-4-piperidyl]oxy]-3-methyl-phenyl]thieno[3,2-b]pyridin-2-yl]methyl]-1-methyl-pyrimidine-2,4-dione; 2,2,2-trifluoroacetic acid]
IC50 [2]: < 1000 nM

Cc1cc(Cl)cc(-c2ccnc3cc(CN4C(=O)CCC4=O)sc23)c1O[C@H]1CCCN(C2COC2)C1 [Example 449, 1-[[7-[5-chloro-3-methyl-2-[[(3S)-1-(oxetan-3-yl)-3-piperidyl]oxy]phenyl]thieno[3,2-b]pyridin-2-yl]methyl]pyrrolidine-2,5-dione]
IC50 [2]: < 1000 nM

From patent publication US10722514B2 (FLX Bio, Inc., priority 2017, dated 2020)
